Test results as given in patent US20180353501A1 (Arvinas, Inc., priority 2017, published 2018).

Molecular target: T1, FLAG-p38α (Homo sapiens, UniProt Q16539)
T1 construct: expressed in transfected cells; host or cells: HeLa
Assay: Ubiquitination assay, HeLa cells co-transfected with HA-Ub and FLAG-p38α
Type: cell-based
Settings: 500 nM, 1 hour
Method: FIGS. 14A, 14B, and 14C. p38α selectivity is discriminated by ternary complex formation. (A) Only p38α incubated in the presence of exemplary compound 50 can be immunoprecipitated with GST-tagged VHL/EloB/EloC (VBC). Immobilized VBC was used as a bait to trap purified p38α in the presence of vehicle (DMSO), compound 50, or compound 46 (represented in micromolar concentrations). The rightmost lane represents a 1:25 dilution of initial input protein used in each pull-down. (B) Proximity-based AlphaLISA assay detects significant p38α:compound 50:VHL ternary complex, but no p38α:compound 46:VHL ternary complex. His-p38α and GST-VBC were incubated in the presence of increasing concentrations of compound 50 and compound 46 and the extent of ternary complex formation was assessed by excitation with incident light with 1=680 nm and capture of the emission light at 1=615 nm. Error bars represent the SD from quadruplicate experiments. (C) Only exemplary compound 50 ubiquitinates FLAG-p38α in HeLa cells. […] FLAGimmunoprecipitated lysates were separated by SDS-PAGE and assessed via western blots detecting HA (Ub). […]
HeLa cells (2×10^6) were seeded into 10 cm dishes and allowed to adhere overnight. […] Lysates were spun down at 14,000×g at 4° C. for 20 minutes and protein content was measured by Pierce BCA Protein Assay (ThermoFisher Scientific). […]

T1 sequence (Q16539 whole entry): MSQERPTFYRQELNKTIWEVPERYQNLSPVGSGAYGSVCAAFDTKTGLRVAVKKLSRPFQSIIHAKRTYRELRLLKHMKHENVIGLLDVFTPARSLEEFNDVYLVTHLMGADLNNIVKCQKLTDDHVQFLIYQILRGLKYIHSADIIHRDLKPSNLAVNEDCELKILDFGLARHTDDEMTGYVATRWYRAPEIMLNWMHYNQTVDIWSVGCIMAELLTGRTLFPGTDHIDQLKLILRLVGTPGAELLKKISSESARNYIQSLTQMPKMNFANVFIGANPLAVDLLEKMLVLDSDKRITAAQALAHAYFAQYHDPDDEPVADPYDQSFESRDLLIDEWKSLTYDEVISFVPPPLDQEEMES

SMILES: COc1cc2c(Oc3ccc(NC(=O)C4(C(=O)Nc5ccc(F)cc5)CC4)cc3F)ccnc2cc1OCCOCCOCCOc1cc(-c2scnc2C)ccc1CNC(=O)[C@@H]1C[C@@H](O)CN1C(=O)[C@H](C(C)C)N1Cc2ccccc2C1=O [compound 46]
- ubiquitination of FLAG-p38α: this effect was not seen

SMILES: COc1cc2c(Oc3ccc(NC(=O)C4(C(=O)Nc5ccc(F)cc5)CC4)cc3F)ccnc2cc1OCCCCOCCCCOCC(=O)N[C@H](C(=O)N1C[C@H](O)C[C@H]1C(=O)NCc1ccc(-c2scnc2C)cc1)C(C)(C)C [compound 50, N-(3-fluoro-4-((7-(4-(4-(2-(((S)-1-((2S,4R)-4-hydroxy-2-((4-(4-methylthiazol-5-yl)benzyl)carbamoyl)pyrrolidin-1-yl)-3,3-dimethyl-1-oxobutan-2-yl)amino)-2-oxoethoxy)butoxy)buto-xy)-6-methoxyquinolin-4-yl)oxy)phenyl)-N-(4-fluorophenyl)cyclopropane-1,1-dicarboxa-mide]
- ubiquitination of FLAG-p38α: substantial ubiquitination
